Measurements: ChEMBL document CHEMBL1140718, “Fragment-based discovery of mexiletine derivatives as orally bioavailable inhibitors of urokinase-type plasminogen activator” (J Med Chem, 2008)

Experiments:
[1] = biological target: Urokinase-type plasminogen activator (Homo sapiens, UniProt P00749)
[2] = Clearance in rat at 0.95 mg/kg, iv; format: ADME, organism-based; parameters: dose 0.95 mg/kg, route intravenous; conditions: in vivo
[3] = Volume of distribution in rat at 0.95 mg/kg, iv; format: ADME, organism-based; parameters: dose 0.95 mg/kg, route intravenous; conditions: in vivo
[4] = Half life in rat at 0.95 mg/kg, iv; format: ADME, organism-based; parameters: dose 0.95 mg/kg, route intravenous; conditions: in vivo
[5] = Oral bioavailability in rat at 4.2 mg/kg; format: ADME, organism-based; conditions: in vivo
[6] = Dissociation constant, pKa of the compound; format: physicochemical

Compound | IC50 [1] | other results
CCOC(=O)N1CCN(C(=O)[C@H](Cc2cccc(C(=N)N)c2)NS(=O)(=O)c2c(C(C)C)cc(C(C)C)cc2C(C)C)CC1 | 0.41 µM | –
NC(N)=Nc1ncc(Cl)c2ccc(-c3cccc(C(=O)O)c3)cc12 | 0.037 µM | –
CCOc1c(Cl)cc(N2CCCCC2)cc1NC(=O)c1cc(C)c(OC[C@@H](C)N)c(C)c1 | 0.46 µM | –
N=C(N)c1ccc(CNC(=O)[C@H](CO)NC(=O)[C@@H](CO)NS(=O)(=O)Cc2ccccc2)cc1 | 0.02 µM | –
NCCOc1c(Cl)cc(C(=O)Nc2ccccc2)cc1Cl | 35 µM | –
COc1ccccc1NC(=O)c1cc(Cl)c(OCCN)c(Cl)c1 | 23 µM | –
Cc1cc(C(=O)Nc2cccc(OC(C)C)c2)cc(C)c1OCCN | 2.7 µM | –
Cc1cc(C(=O)Nc2cc(OC(C)C)cc(OC(C)C)c2)cc(C)c1OCCN | 0.072 µM | –
CCOc1c(Cl)cc(N2CCCCC2)cc1NC(=O)c1cc(C)c(OCCN)c(C)c1 | – | clearance [2]: 2.58 L/h/kg; Vd [3]: 27 L/kg; half-life [4]: 7.5 h; bioavailability [5]: 60%; pKa [6]: 8.75
Cc1cc(C(=O)Nc2cc(F)cc(N3CCOCC3)c2)cc(C)c1OCCN | 1.6 µM | –
